Assay results reported in patent publication US7271171B2, “Adenosine A3 receptor modulators” (King Pharmaceuticals Research and Development, Inc., priority 1998, dated 2007).
Where two headings read alike, the source gives them in different places.

Tests used:
[1] = target: T1, human recombinant A2B adenosine receptors (Homo sapiens, UniProt P29275); assay: Human cloned A2B receptor binding, [3H]-DPCPX, HEK-293 cells; conditions: read-out: hA2B (Ki)
T1 construct: host or cells: HEK-293
T1 sequence (P29275 1-332): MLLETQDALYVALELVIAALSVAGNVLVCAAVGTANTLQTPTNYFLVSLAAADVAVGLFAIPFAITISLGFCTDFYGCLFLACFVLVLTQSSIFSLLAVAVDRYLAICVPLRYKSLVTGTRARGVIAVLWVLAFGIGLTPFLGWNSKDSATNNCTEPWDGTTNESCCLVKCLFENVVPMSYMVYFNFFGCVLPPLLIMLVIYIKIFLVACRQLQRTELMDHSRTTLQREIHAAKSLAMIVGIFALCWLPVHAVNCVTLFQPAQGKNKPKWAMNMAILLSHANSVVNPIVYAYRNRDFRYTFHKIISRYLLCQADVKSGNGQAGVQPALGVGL
Procedure: Binding of [^3H]-DPCPX to HEK-293 cells (Receptor Biology, Inc., Beltsville, Md.) transfected with the human recombinant A2B adenosine receptors is performed essentially to the method described by Varani and coworkers (Mol. Pharmacol.). In particular, assays are carried out for 60 min. at 25° C. in 0.1 mL of 50 mM Tris HCl Buffer, 10 mM MgCl2, 1 mM EDTA, 0.1 mM benzamidine pH 7.4, 2 IU/ml adenosine deaminase containing 40 nM [^3H]-DPCPX, diluted membranes (20 µg of protein/assay) and at least 6-8 different concentration of tested compounds. Non-specific binding is determined in the presence of 100 μM of NECA and is always 30% of the total binding.

[2] = Solubility in water; format: physicochemical
[3] = target: T2, human recombinant A1 adenosine receptor (Homo sapiens, UniProt P30542); assay: Human cloned A1 receptor binding, [3H]-DPCPX, CHO cells; conditions: read-out: hA1 (Ki)
T2 construct: expressed in transfected cells; host or cells: CHO
T2 sequence (P30542 1-326): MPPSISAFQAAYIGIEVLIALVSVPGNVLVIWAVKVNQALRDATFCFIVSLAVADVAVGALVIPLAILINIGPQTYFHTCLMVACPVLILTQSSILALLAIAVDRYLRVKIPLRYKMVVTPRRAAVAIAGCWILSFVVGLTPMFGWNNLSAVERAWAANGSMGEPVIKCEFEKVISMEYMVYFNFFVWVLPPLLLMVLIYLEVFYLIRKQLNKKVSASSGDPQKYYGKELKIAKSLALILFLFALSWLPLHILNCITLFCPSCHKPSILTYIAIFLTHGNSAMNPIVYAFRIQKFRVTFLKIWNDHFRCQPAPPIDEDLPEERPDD
Procedure: (§1) The expression of the human A1, A2A, A2B and A3 receptors in CHO cells has been previously described (Klotz et al., 1998). The cells are grown adherently and maintained in Dulbecco's modified Eagle's medium with nutrient mixture F12 without nucleosides at 37 ° C. in 5% CO2/95% air. Cells are split two or three times weekly and then the culture medium is removed for membrane preparations. The cells are washed with phosphate-buffered saline and scraped off flasks in ice cold hypotonic buffer (5 mM Tris HCl, 2 mM EDTA, pH 7.4). The cell suspension is homogenized with Polytron and the homogenate is centrifuged for 30 min. at 48,000 g. The membrane pellet is re-suspended in 50 mM Tris HCl buffer at pH 7.4 for A1 adenosine receptors, in 50 mM Tris HCl, 10 mM MgCl2 at pH 7.4 for A2A adenosine receptors, in 50 mM Tris HCl, 10 mM MgCl2, 1 mM EDTA at pH 7.4 for A3 adenosine receptors and are utilized for binding and adenylate cyclase assays.
Binding of [^3H]-DPCPX to CHO cells transfected with the human recombinant A1 adenosine receptor is performed according to the method previously described by Klotz and coworkers (Klotz, K. N.; Cristalli, G.; Grifantini, M.; Vittori, S.; Lohse, M. J., “Photoaffinity labeling of A1 adenosine receptors,” J. Biol. Chem., 260, 14659-14664, 1985).
(§2) Displacement experiments are performed for 120 min. at 25° C. in 0.20 mL of buffer containing 1 nM [^3H]-DPCPX, 20 μL of diluted membranes (50 μg of protein/assay) and at least 6-8 different concentrations of examined compounds. Non-specific binding is determined in the presence of 10 μM of CHA and this is always 10% of the total binding. Binding of [^3H]-SCH58261 to CHO cells transfected with the human recombinant A2A adenosine receptors (50 μg of protein/assay) was performed according to Varani et al. (Varani, K; Cacciari, B.; Baraldi, P. G.; Dionisotti, S.; Ongini, E.; Borea, P. A., “Binding affinity of adenosine receptor agonists and antagonists at human cloned […] adenosine receptors,” Life Sci., 63, 81-87, 1998). In competition studies, at least 6-8 different concentrations of compounds are used and non-specific binding is determined in the presence of 50 μM NECA for an incubation time of 60 min. at 25° C.

[4] = target: T3, adenosine A3 receptor (Homo sapiens, UniProt P0DMS8); assay: Adenylate cyclase assay: block of agonist-induced inhibition of cAMP production; format: biochemical; conditions: FIG. 2, comparison in words
T3 construct: expressed in transfected cells; host or cells: CHO
T3 sequence (P0DMS8 1-318): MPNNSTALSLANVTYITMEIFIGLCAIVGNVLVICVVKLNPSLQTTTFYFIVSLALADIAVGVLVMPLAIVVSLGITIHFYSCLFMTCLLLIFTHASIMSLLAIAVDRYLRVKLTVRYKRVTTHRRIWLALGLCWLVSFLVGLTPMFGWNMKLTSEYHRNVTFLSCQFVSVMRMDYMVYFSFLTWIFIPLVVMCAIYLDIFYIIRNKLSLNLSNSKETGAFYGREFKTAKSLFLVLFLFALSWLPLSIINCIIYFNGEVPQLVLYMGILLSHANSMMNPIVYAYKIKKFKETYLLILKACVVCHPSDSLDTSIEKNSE
Procedure: as §1
Membrane preparation is suspended in 0.5 mL of incubation mixture (50 mM Tris HCl, MgCl2 10 mM, EDTA, 1 mM, pH 7.4) containing GTP 5 µM, 0.5 mM 4-(3-buthoxy-4-methoxybenzyl)-2-imidazolidinone (Ro 20-1274) as phosphodiesterase inhibitor, 2.0 IU/mL adenosine deaminase and pre-incubated for 10 min. in a shaking bath at 37° C. […]

[5] = target: T4, human recombinant A2A adenosine receptors (Homo sapiens, UniProt P29274); assay: Human cloned A2A receptor binding, [3H]-SCH58261, CHO cells; conditions: read-out: hA2A (Ki)
T4 construct: expressed in transfected cells; host or cells: CHO
Procedure: as §1, §2

[6] = target: T5, rA1 adenosine receptor (Rattus norvegicus, UniProt P25099); conditions: values taken from Kim et al., J. Med. Chem. 1996; cited from earlier work
T5 construct: membranes of rat brain (150-200 μg- of protein/assay); from tissue; host or cells: whole brain of male Wistar rats
T5 sequence (P25099 1-326): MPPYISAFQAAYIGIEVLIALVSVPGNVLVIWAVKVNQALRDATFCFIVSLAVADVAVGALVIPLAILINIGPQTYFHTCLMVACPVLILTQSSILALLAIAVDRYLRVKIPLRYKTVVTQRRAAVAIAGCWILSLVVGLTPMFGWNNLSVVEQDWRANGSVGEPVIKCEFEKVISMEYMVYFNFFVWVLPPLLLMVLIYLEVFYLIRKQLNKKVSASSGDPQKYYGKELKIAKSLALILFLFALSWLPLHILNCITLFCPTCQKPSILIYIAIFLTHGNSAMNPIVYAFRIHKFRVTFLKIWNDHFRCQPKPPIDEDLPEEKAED

[7] = target: T6, rA2A adenosine receptor (Rattus norvegicus, UniProt P30543); conditions: values taken from Kim et al., J. Med. Chem. 1996; cited from earlier work
T6 construct: membranes of rat striatum (80-100 μmg of protein/assay); from tissue; host or cells: striatum of male Wistar rats

[8] = target: T7, human A3 receptors expressed in HEK 293 cells (Homo sapiens, UniProt P0DMS8); conditions: saturation curve, FIG. 1, n=3
T7 sequence (P0DMS8 1-318): T3 sequence (P0DMS8 1-318)

[9] = test system: SKN-MC cell membranes; assay: [125I]-ABMECA binding on tumor cell line membranes; conditions: 0.5 nM radioligand
Procedure: (§3) A series of binding experiments were performed on various tumor cell lines, using 0.5 nM [^125I]-ABMECA, with unspecific binding determined in the presence of 50 μM R-PIA or 200 μM NECA, on cell membranes of the cell lines. Specific binding was determined by substracting unspecific binding from total binding. The cell lines were the HL 60, NB4, SKN-MC, SKN-Be2C, SKN-SH and JURKAT cell lines.

[10] = test system: SKN-Be2C cell membranes; assay: [125I]-ABMECA binding on tumor cell line membranes; conditions: 0.5 nM radioligand
Procedure: as §3

[11] = test system: NB4 cell membranes; assay: [125I]-ABMECA binding on tumor cell line membranes; conditions: NB4, 0.5 nM radioligand
Procedure: as §3

[12] = test system: SKN-SH cell membranes; assay: [125I]-ABMECA binding on tumor cell line membranes; conditions: 0.5 nM radioligand
Procedure: as §3

[13] = test system: HL 60 cell membranes; assay: [125I]-ABMECA binding on tumor cell line membranes; set-up: species or system human; conditions: HL 60, 0.5 nM radioligand
Procedure: as §3

[14] = test system: JURKAT cell membranes; assay: [125I]-ABMECA binding on tumor cell line membranes; set-up: species or system human; conditions: 0.5 nM radioligand
Procedure: as §3

[15] = target: T8, A3 receptor in Jurkat cell membranes (Homo sapiens, UniProt P0DMS8)
T8 sequence (P0DMS8 1-318): T3 sequence (P0DMS8 1-318)

[16] = target: T9, human recombinant A3 adenosine receptor (Homo sapiens, UniProt P0DMS8); assay: Human cloned A3 adenosine receptor binding assay, [125I]AB-MECA, HEK-293 membranes; set-up: USA; host or cells: HEK-293
T9 sequence (P0DMS8 1-318): T3 sequence (P0DMS8 1-318)

[17] = target: T5, rA1 adenosine receptor; assay: Rat A1 adenosine receptor binding assay, [3H]CHA displacement, rat brain membranes
Procedure: (§4) Male Wistar rats (200-250 g) were decapitated and the whole brain and striatum dissected on ice. […] The homogenate was centrifuged at 48,000 for 10 min, and the pellet was resuspended in the same buffer containing 2 IU/mL adenosine deaminase. After 30 min incubation at 37° C., the membranes were centrifuged and pellets were stored at −80° C. Prior to freezing, an aliquot of homogenate was removed for protein assay with bovine albumin as reference standard. Binding assays were performed on rat brain and striatum membranes respectively, in the presence of 10 mM MgCl2 at 25° C.
(§5) Separation of bound from free radio ligand was performed by rapid filtration through Whatman GF/B filters which were washed three times with ice-cold buffer. Filter bound radioactivity was measured by scintillation spectrometry after addition of 5 mL of Aquassure. […] Ki values were calculated from the Cheng-Prusoff equation. All binding data were analyzed using the nonlinear regression curve-fitting computer program LIGAND.

[18] = target: T6, rA2A adenosine receptor; assay: Rat A2A adenosine receptor binding assay, [3H]SCH58261 displacement, rat striatum membranes; conditions: rat striatum membranes, [3H]SCH58261; read-out: rA2A (Ki)
Procedure: as §4, §5

T6 sequence (P30543 whole entry): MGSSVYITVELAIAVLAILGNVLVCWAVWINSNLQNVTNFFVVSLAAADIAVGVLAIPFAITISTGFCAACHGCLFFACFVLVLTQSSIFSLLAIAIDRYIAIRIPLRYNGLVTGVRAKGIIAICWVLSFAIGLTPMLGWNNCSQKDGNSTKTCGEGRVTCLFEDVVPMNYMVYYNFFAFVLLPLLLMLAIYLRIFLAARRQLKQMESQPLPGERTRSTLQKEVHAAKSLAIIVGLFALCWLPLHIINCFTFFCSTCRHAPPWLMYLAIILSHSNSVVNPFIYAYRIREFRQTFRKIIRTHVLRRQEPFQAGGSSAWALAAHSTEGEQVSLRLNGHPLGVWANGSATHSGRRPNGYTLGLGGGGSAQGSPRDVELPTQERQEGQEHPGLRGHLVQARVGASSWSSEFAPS
T4 sequence (P29274 whole entry): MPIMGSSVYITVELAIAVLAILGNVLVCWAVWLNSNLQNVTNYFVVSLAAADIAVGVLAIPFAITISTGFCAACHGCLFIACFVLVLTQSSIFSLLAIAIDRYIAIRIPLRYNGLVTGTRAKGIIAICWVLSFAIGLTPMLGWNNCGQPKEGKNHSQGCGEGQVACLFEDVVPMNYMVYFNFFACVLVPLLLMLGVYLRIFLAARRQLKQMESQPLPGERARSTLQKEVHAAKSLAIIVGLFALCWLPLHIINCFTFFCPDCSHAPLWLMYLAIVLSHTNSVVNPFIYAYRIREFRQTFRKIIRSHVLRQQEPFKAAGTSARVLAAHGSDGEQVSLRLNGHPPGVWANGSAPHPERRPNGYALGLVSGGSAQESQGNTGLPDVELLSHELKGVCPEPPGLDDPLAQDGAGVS

## Cl.Cn1cc2c(nc(NC(=O)Nc3ccncc3)n3nc(-c4ccco4)nc23)n1 [Compound 107, N-[2-(2-furyl)-8-methyl-8H-pyrazolo[4,3-e][1,2,4]triazolo[1,5-c]pyrimidin-5-yl]-N′-pyridin-4-ylurea hydrochloride]
[1]; hydrochloride
  Ki: 250 nM
[2]
  solubility in water: soluble in water
[3]; hydrochloride
  Ki: 350 nM
[4]
  potency of adenosine A3 antagonism (block of C1-IB-MECA induced inhibition of cAMP production): comparable
[5]; hydrochloride
  Ki: 100 nM

## O=C(Cc1ccccc1)Nc1nc2ccc(Cl)cc2c2nc(-c3ccco3)nn12 [MRS 1220]
[6]
  Ki: 305 ± 51 nM
[7]
  Ki: 52 ± 8.8 nM

## CNC(=O)[C@H]1O[C@@H](n2cnc3c(NCc4ccc(N)c([125I])c4)ncnc32)[C@H](O)[C@@H]1O [[^125I]AB-MECA, [^125I]N^6-(4-amino-3-iodobenzyl)adenosine-5′N-methyluronamide]
[8]
  Bmax value: 62±1 fmol/mg protein
[9]
  Percent Specific Binding: 17%
  Specific Binding (cpm): 1308 cpm
[10]
  Percent Specific Binding: 24%
  Specific Binding (cpm): 1415 cpm
[11]
  Percent Specific Binding: 19%
  Specific Binding (cpm): 637 cpm
[12]
  Percent Specific Binding: 3%
  Specific Binding (cpm): 91 cpm
[13]
  Percent Specific Binding: 20%
  Specific Binding (cpm): 693 cpm
[14]
  Percent Specific Binding: 38%
  Specific Binding (cpm): 2846 cpm
[15]; FIG. 3
  Bmax (fmol/mg protein) / density of A3 receptor detected: approximately 300 fmol/mg protein
[15]; FIG. 3, listed as [^125I]-ABMECA
  Bmax (fmol/mg protein) / density of A3 receptor detected: 290 fmol/mg protein

## CC(C)CCn1cc2c(nc(NC(=O)Cc3ccccc3)n3nc(-c4ccco4)nc23)n1 [Compound 58, 5-[(Benzyl)carbonyl]amino-8-isopentyl-2-(2-furyl)-pyrazolo[4,3.e]1,2,4-triazolo[1,5-c]pyrimidine]
[16]; HEK-293 membranes, [125I]AB-MECA, read-out: hA3 (Ki)
  Ki: 81.1 nM
[16]; selectivity ratio of Ki values
  rA1/hA3: 4.6
  rA2A/hA3: 4
other
  melting point: 144 to 145 °C
[17]
  Ki: 373 nM
[18]
  Ki: 323 nM

## Cn1cc2c(nc(NC(=O)Nc3ccncc3)n3nc(-c4ccco4)nc23)n1 [Compound 106, N-[2-(2-furyl)-8-methyl-8H-pyrazolo[4,3-e][1,2,4]triazolo[1,5-c]pyrimidin-5-yl]-N′-pyridin-4-yl urea]
[1]
  Ki: 200 nM
[3]
  Ki: 250 nM
[4]
  potency of adenosine A3 antagonism (block of C1-IB-MECA induced inhibition of cAMP production): comparable
[5]
  Ki: 60 nM
